One experiment deals with T1, B1R of the rat (Rattus norvegicus, UniProt P97583).
T1 construct: expressed in transfected cells; host or cells: CHO K1 cells (Chinese hamster ovary), stably transfected
T1 sequence (P97583 1-337): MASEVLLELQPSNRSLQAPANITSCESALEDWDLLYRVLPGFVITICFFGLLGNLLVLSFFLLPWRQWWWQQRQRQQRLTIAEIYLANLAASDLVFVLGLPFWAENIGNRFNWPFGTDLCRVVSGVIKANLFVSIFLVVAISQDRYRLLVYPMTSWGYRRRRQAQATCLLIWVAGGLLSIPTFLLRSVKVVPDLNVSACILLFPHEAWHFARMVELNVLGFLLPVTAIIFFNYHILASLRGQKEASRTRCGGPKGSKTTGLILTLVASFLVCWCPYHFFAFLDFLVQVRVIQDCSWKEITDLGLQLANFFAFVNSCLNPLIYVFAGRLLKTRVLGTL
Briefly: FLIPR Ca2+ functional assay, B1R antagonism, rat B1R in CHO K1 cells. It is filed as cell-based. To be noted: test substance 10 μM; rB1R CHO K1 cells; agonist Des-Arg9 bradykinin at EC80; % of maximum achievable inhibition. A digest of the protocol: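 Stably transfected CHO K1 cells loaded with Fluo-4; Ca2+ fluorescence read on FLIPR (ex 488/em 540 nm). Compound preincubated 10-20 min, then agonist at EC80: Lys-Des-Arg9 bradykinin (human) or Des-Arg9 bradykinin (rat). % inhibition vs maximal inhibition; IC50 from concentration series, n=2-3, N>=2.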

The target of another experiment is T2, human B1R (Homo sapiens, UniProt P46663).
T2 construct: expressed in transfected cells; host or cells: CHO K1 cells (Chinese hamster ovary), stably transfected
T2 sequence (P46663 1-353): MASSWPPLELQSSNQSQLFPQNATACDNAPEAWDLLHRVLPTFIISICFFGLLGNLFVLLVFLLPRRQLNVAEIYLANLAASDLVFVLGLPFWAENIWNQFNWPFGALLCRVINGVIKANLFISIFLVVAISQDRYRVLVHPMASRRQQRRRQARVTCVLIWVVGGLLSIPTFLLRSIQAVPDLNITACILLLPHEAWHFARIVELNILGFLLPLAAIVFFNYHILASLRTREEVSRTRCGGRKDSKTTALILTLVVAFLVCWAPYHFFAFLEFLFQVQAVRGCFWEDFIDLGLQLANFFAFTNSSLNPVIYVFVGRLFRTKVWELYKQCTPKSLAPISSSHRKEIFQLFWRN
Nature of the experiment: FLIPR Ca2+ functional assay, B1R antagonism, human B1R in CHO K1 cells. The experiment is classed as cell-based. The settings on record: test substance 10 μM; hB1R CHO K1 cells; agonist Lys-Des-Arg9 bradykinin at EC80; % of maximum achievable inhibition. On the procedure: The agonistic or antagonistic action of substances on the bradykinin 1 receptor (B1R) of the human and rat species can be quantified with ectopically expressing cell lines (CHO K1 cells) and with the aid of a Ca^2+-sensitive dye (Fluo-4) using a fluorescent imaging plate reader (FLIPR). The value in % activation is based on the Ca^2+ signal after addition of Lys-Des-Arg^9 bradykinin (0.5 nM) or Des-Arg^9 bradykinin (100 nM). Antagonists lead to a suppression of the Ca^2+ influx following administration of the agonist. The % inhibition in comparison with the maximum achievable inhibition is indicated.
1. Functional Investigation on the Bradykinin 1 Receptor (B1R) The agonistic or antagonistic action of substances can be determined on the bradykinin 1 receptor (B1R) of the human and rat species with the following assay. According to this assay, the Ca^2+ inflow through the channel is quantified with the aid of a Ca^2+-sensitive dye (Fluo-4 type, Molecular Probes Europe BV, Leiden, Netherlands) in a fluorescent imaging plate reader (FLIPR, Molecular Devices, Sunnyvale, USA). 2. Method: Chinese hamster ovary cells (CHO K1 cells) which are stably transfected with the human B1R gene (hB1R cells) or the B1R gene of the rat (rB1R cells) are used. For functional investigations these cells are plated-out onto black 96-well plates with a clear base (BD Biosciences, Heidelberg, Germany or Greiner, Frickenhausen, Germany) in a density of 20,000-35,000 cells/well. Overnight the cells are incubated at 37° C. and 5% CO2 in culture medium (hB1R cells: Ham's Nutrient Mixture F12, Gibco Invitrogen GmbH, Karlsruhe, Germany or DMEM, Sigma-Aldrich, Taufkirchen, Germany; rB1R cells: D-MEM/F12, Gibco Invitrogen, Karlsruhe, Germany) with 10 vol. % FBS (foetal bovine serum, Gibco Invitrogen GmbH, Karlsruhe, Germany or PAN Biotech GmbH, Aidenbach, Germany).
On the following day the cells are loaded with 2.13 μM Fluo-4 (Molecular Probes Europe BV, Leiden, Netherlands) in HBSS buffer (Hank's buffered saline solution, Gibco Invitrogen GmbH, Karlsruhe, Germany) with 2.5 mM probenecid (Sigma-Aldrich, Taufkirchen, Germany) and 10 mM HEPES (Sigma-Aldrich, Taufkirchen, Germany) for 60 min at 37° C. The plates are subsequently washed twice with HBSS buffer, and HBSS buffer which additionally contains 0.1% BSA (bovine serum albumin; Sigma-Aldrich, Taufkirchen, Germany), 5.6 mM glucose and 0.05% gelatine (Merck KGaA, Darmstadt, Germany) is added. After a further incubation of 20 minutes at RT, the plates are inserted into the FLIPR for Ca^2+ measurement. Alternatively they are washed with buffer A (15 mM HEPES, 80 mM NaCl, 5 mM KCl, 1.2 mM CaCl2, 0.7 mM MgSO4, 2 g/l glucose, 2.5 mM probenecid) and loaded with buffer A with added 2.5 μM Fluo-4 and 0.025% Pluronic F127 (Sigma-Aldrich, Taufkirchen, Germany). The cells are then washed twice with buffer A and incubated for 30 minutes with buffer A, which additionally contains 0.05% BSA and 0.05% gelatine, at RT and then used for Ca^2+ measurement in the FLIPR. The Ca^2+-dependent fluorescence is measured here before and after addition of substances (λex=488 nm, λem=540 nm). The quantification is performed by measuring the highest fluorescence intensity (FC, fluorescence counts) over time.
The FLIPR protocol comprises two additions of substance. Test substances (10 μM) are first pipetted onto the cells and the Ca^2+ inflow is compared with the control (hB1R: Lys-Des-Arg^9 bradykinin >=50 nM; rB1R: Des-Arg^9 bradykinin 10 μM). The value in % activation based on the Ca^2+ signal after addition of Lys-Des-Arg^9 bradykinin (>=50 nM) or Des-Arg^9 bradykinin (10 μM) is obtained therefrom. After incubation for 10-20 minutes, Lys-Des-Arg^9 bradykinin (hB1R) or Des-Arg^9 bradykinin (rB1R) is applied in the EC80 concentration and the inflow of Ca^2+ is likewise determined.
Antagonists lead to a suppression of the Ca^2+ inflow. The % inhibition in comparison with the maximum achievable inhibition is calculated. […]

One may read the inhibition as the change of the read-out against control, counted positive when it falls.

Turning to `COc1cc(C)c(S(=O)(=O)N2CCn3cccc3C2COCC(=O)N2CCC3(CC2)CCN(c2ccncc2)CC3)c(C)c1` (stereo not drawn) [Example 10, 2-((2-(4-Methoxy-2,6-dimethylphenylsulfonyl)-1,2,3,4-tetrahydropyrrolo[1,2-a]pyrazin-1-yl)methoxy)-1-(9-(pyridin-4-yl)-3,9-diazaspiro[5.5]undecan-3-yl)ethanone], the values for the inhibition at 10 µM on B1R of the rat and at human B1R were 103% and 99.8%, respectively.
On to `Cc1cccc(Cl)c1S(=O)(=O)N1CCn2cccc2C1COCC(=O)N1CCC2(CC1)CCN(c1ccncc1)CC2` (stereo not drawn) [Example 15, 2-((2-(2-Chloro-6-methylphenylsulfonyl)-1,2,3,4-tetrahydropyrrolo[1,2-a]pyrazin-1-yl)methoxy)-1-(9-(pyridin-4-yl)-3,9-diazaspiro[5.5]undecan-3-yl)ethanone], for which the inhibition at 10 µM on B1R of the rat was determined as 98.3%; on human B1R, 99.9%.
Regarding `Cc1ccc(S(=O)(=O)N2CCn3cccc3C2CC(=O)NC2CCCc3cc(CN(C)C)ccc32)cc1Cl` (stereo not drawn) [Example 102, 2-[2-[(3-Chloro-4-methyl-phenyl)sulfonyl]-1,2,3,4-tetrahydro-pyrrolo[1,2-a]pyrazin-1-yl]-N-[6-(dimethylaminomethyl)-1,2,3,4-tetrahydro-naphthalen-1-yl]-acetamide], the inhibition at 10 µM came to 101% on B1R of the rat and 99.9% at human B1R.
Take `Cc1ccc(S(=O)(=O)N2CCn3cccc3C2CC(=O)NC2CCc3cc(CNC(C)(C)C)ccc3C2)cc1` (stereo not drawn) [Example 122, N-[6-[(tert-Butylamino)-methyl]-1,2,3,4-tetrahydro-naphthalen-2-yl]-2-[2-(p-tolylsulfonyl)-1,2,3,4-tetrahydro-pyrrolo[1,2-a]pyrazin-1-yl]-acetamide]: the inhibition at 10 µM at B1R of the rat is 101%; on human B1R, 99.6%.
Taken in the same sequence, the figures for `Cc1ccc(S(=O)(=O)N2CCn3cccc3C2CC(=O)NC2CCc3cc(CN4CCCc5ccccc54)ccc3C2)cc1Cl` (stereo not drawn) [Example 52, 2-[2-[(3-Chloro-4-methyl-phenyl)sulfonyl]-1,2,3,4-tetrahydro-pyrrolo[1,2-a]pyrazin-1-yl]-N-[6-(1,2,3,4-tetrahydro-quinolin-1-yl-methyl)-1,2,3,4-tetrahydro-naphthalen-2-yl]-acetamide] were 103% and 96%.
As to `Cc1cccc(Cl)c1S(=O)(=O)N1CCn2cccc2C1COCC(=O)N(C)CCC1CCN(c2ccncc2)CC1` (stereo not drawn) [Example 16, 2-((2-(2-Chloro-6-methylphenylsulfonyl)-1,2,3,4-tetrahydropyrrolo[1,2-a]pyrazin-1-yl)methoxy)-N-methyl-N-(2-(1-(pyridin-4-yl)piperidin-4-yl)ethyl)acetamide], the inhibition at 10 µM on B1R of the rat was determined as 98.5%; at human B1R, 99.9%.
For the compound `COc1cc(C)c(S(=O)(=O)N2CCn3cccc3C2COCC(=O)N2CCC(N3CC4CC3CN4C)CC2)c(C)c1` (stereo not drawn) [Example 40, 2-[[2-[(4-Methoxy-2,6-dimethyl-phenyl)sulfonyl]-1,2,3,4-tetrahydro-pyrrolo[1,2-a]pyrazin-1-yl]-methoxy]-1-[4-(3-methyl-3,6-diazabicyclo[2.2.1]heptan-6-yl)-piperidin-1-yl]-ethanone], the results for the inhibition at 10 µM at B1R of the rat and on human B1R were 94.9% and 99.6%, respectively.
Turning to `COc1cc(C)c(S(=O)(=O)N2CCn3cccc3C2COCC(=O)N2CCC3(CCNC3)CC2)c(C)c1` (stereo not drawn) [Example 22, 2-((2-(4-Methoxy-2,6-dimethylphenylsulfonyl)-1,2,3,4-tetrahydro-pyrrolo[1,2-a]pyrazin-1-yl)methoxy)-1-(2,8-diazaspiro[4.5]decan-8-yl)ethanone], the inhibition at 10 µM at B1R of the rat is 113%; at human B1R, 99.6%.
Taken in the same sequence, the figures for `Cc1ccc(S(=O)(=O)N2CCn3cccc3C2CC(=O)NC2CCCc3cc(CN4CCCc5ccccc54)ccc32)cc1` (stereo not drawn) [Example 129, 2-[2-(p-Tolylsulfonyl)-1,2,3,4-tetrahydro-pyrrolo[1,2-a]pyrazin-1-yl]-N-[6-(1,2,3,4-tetrahydro-quinolin-1-yl-methyl)-1,2,3,4-tetrahydro-naphthalen-1-yl]-acetamide] were 74.7% and 46.1%.
For the compound `Cc1ccc(S(=O)(=O)N2CCn3cccc3C2CC(=O)NC2CCCc3cc(CN4CCCC4)ccc32)cc1Cl` (stereo not drawn) [Example 91, 2-[2-[(3-Chloro-4-methyl-phenyl)sulfonyl]-1,2,3,4-tetrahydro-pyrrolo[1,2-a]pyrazin-1-yl]-N-[6-(pyrrolidin-1-yl-methyl)-1,2,3,4-tetrahydro-naphthalen-1-yl]-acetamide], the inhibition at 10 µM on B1R of the rat is 99%; at human B1R it was 99.9%.
As for `COc1cc(C)c(S(=O)(=O)N2CCn3cccc3C2COCC(=O)NC2CCN(c3ccc(C(F)(F)F)cn3)CC2)c(C)c1` (stereo not drawn) [Example 32, 2-[[2-[(4-Methoxy-2,6-dimethyl-phenyl)sulfonyl]-1,2,3,4-tetrahydro-pyrrolo[1,2-a]pyrazin-1-yl]-methoxy]-N-[1-[5-(trifluoromethyl)-pyridin-2-yl]-piperidin-4-yl]-acetamide], the inhibition at 10 µM on B1R of the rat was found to be 65.5%; on human B1R, 8.84%.
For the compound `CN(Cc1ccc2c(c1)CCC(NC(=O)CC1c3cccn3CCN1S(=O)(=O)c1cccc(C(F)(F)F)c1)C2)C(C)(C)C` (stereo not drawn) [Example 116, N-[6-[(tert-Butyl-methyl-amino)-methyl]-1,2,3,4-tetrahydro-naphthalen-2-yl]-2-[2-[[3-(trifluoromethyl)phenyl]sulfonyl]-1,2,3,4-tetrahydro-pyrrolo[1,2-a]pyrazin-1-yl]-acetamide], the results for the inhibition at 10 µM at B1R of the rat and at human B1R were 102% and 99.8%, respectively.

The record behind these values is patent US8158628B2, “Sulfonylated 1,2,3,4-tetrahydropyrrolo[1,2-a]pyrazine compounds and their use as pharmaceuticals” (Gruenenthal GmbH, priority 2009, dated 2012).
